Assays:
[1] = molecular target: T1, Deoxynucleoside kinase (Drosophila melanogaster) (UniProt Q9XZT6); experiment: Activity at Drosophila melanogaster dNK at 100 uM by spectrophotometry
T1 sequence (whole entry): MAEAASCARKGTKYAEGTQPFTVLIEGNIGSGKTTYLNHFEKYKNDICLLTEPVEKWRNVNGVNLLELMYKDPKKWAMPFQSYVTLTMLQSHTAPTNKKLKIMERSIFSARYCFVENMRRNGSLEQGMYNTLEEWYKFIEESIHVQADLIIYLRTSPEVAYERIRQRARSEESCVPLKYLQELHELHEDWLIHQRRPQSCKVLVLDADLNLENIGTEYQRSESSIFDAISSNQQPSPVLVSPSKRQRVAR

[2] = molecular target: T1, Deoxynucleoside kinase (Drosophila melanogaster); experiment: Activity at Drosophila melanogaster dNK at 10 uM by spectrophotometry

Structure (SMILES)	Activity [1] [%]	Activity [2] [%]
Cc1cc2cn([C@H]3C[C@H](O)[C@@H](CO)O3)c(=O)nc2o1		43
Cc1cc2cn([C@H]3C[C@H](N=[N+]=[N-])[C@@H](CO)O3)c(=O)nc2o1	12	
Cc1cc2cn([C@H]3C=C[C@@H](CO)O3)c(=O)nc2o1	330	
Cc1cc2cn([C@H]3C[C@H](F)[C@@H](CO)O3)c(=O)nc2o1	12	

The remaining lines, values ahead:

Activity [1] [%]	Activity [2] [%]	Structure (SMILES)
2.6		Cc1cc2cn([C@H]3CC[C@@H](CO)O3)c(=O)nc2[nH]1
30		Cc1cc2cn([C@H]3CC[C@@H](CO)O3)c(=O)nc2o1
128		Cc1cc2cn([C@H]3C[C@H](O)[C@@H](CO)O3)c(=O)nc2[nH]1

Reference: ChEMBL document CHEMBL1156830, “Synthesis of fluorescent nucleoside analogs as probes for 2'-deoxyribonucleoside kinases” (Bioorg Med Chem Lett, 2010)
